Source: patent publication US20230322715A1, “BROAD SPECTRUM ANTI-CANCER COMPOUNDS” (The Regents of the University of California, priority 2019, published 2023)
Read-outs that look alike come from different tables or passages of the source.

Experiments:
FTO = FTO (Homo sapiens (Human), UniProt Q9C0B1); assay: Fluorescence enzymatic inhibition assay (m6A7-Broccoli RNA / DFHBI-1T) against FTO; assay type: biochemical
Procedure: In order to determine their efficacy as FTO inhibitors, the compounds were screened by a fluorescence enzymatic inhibition assay developed previously by the Jaffrey lab.^44 Briefly, a nonfluorescent methylated RNA substrate termed “m6A7-Broccoli” is incubated with FTO in the presence of 2-oxoglutarate (300 μM), (NH4)2Fe(SO4)2·6H2O (300 μM), and L-ascorbate (2 mM) for 2 hours at room temperature in reaction buffer (50 mM NaHEPES, pH 6).
(§1) Inhibitors were added in concentrations ranging from 0.008-40 μM; all inhibitors were dissolved in DMSO and added to a final concentration of 0.2% DMSO. […] After incubation at room temperature for 2 hours, the plates were left at 4° C. overnight (16 hours) to allow DFHBI-1T to bind to A7-Broccoli RNA. […] Sigmoidal dose-response curves were fitted in GraphPad Prism 6. All assays were performed in triplicate, with additional repetitions added as necessary.

[1] = elogD / log D determination
ALKBH5 = ALKBH5 (Homo sapiens (Human), UniProt Q6P6C2); assay: Fluorescence enzymatic inhibition assay (m6A7-Broccoli RNA / DFHBI-1T) against ALKBH5; assay type: biochemical
Procedure: as §1

YTHDF2 = YTHDF2 (Homo sapiens (Human), UniProt Q9Y5A9); assay: In vitro FRET assay for binding affinities of YTH inhibitors, YTHDF2
Source text: FIG. 8-2 depicts possible design and synthesis of compound libraries. In Vitro FRET assay development could yield a high throughput FRET assay to determine binding affinities for potential YHT inhibitors against YTHDF1, YTHDF2, YTHDF3, or other similar proteins.

[2] = Table 800 compounds, read-out: FTO IC50
[3] = Table 800 compounds, read-out: ALKBH5 IC50
[4] = m6A7-Broccoli fluorescence assay, 0.250 μM ALKBH5, read-out: Enzymatic IC50 ALKBH5
[5] = m6A7-Broccoli fluorescence assay, 0.250 μM FTO, inhibitor up to 40 μM, triplicate, read-out: Enzymatic IC50 FTO

Chain of ALKBH5 (Q6P6C2 whole entry): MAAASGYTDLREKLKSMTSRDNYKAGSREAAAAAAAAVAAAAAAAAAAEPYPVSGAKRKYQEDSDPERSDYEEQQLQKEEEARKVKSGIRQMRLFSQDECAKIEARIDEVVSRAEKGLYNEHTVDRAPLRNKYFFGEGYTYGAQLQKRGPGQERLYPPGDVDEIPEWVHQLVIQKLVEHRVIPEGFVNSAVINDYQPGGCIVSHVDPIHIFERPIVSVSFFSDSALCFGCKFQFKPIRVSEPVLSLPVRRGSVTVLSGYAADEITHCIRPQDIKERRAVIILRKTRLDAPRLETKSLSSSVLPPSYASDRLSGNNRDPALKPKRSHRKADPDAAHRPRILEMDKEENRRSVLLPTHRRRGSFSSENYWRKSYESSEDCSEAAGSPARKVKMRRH
Chain of YTHDF2 (Q9Y5A9 whole entry): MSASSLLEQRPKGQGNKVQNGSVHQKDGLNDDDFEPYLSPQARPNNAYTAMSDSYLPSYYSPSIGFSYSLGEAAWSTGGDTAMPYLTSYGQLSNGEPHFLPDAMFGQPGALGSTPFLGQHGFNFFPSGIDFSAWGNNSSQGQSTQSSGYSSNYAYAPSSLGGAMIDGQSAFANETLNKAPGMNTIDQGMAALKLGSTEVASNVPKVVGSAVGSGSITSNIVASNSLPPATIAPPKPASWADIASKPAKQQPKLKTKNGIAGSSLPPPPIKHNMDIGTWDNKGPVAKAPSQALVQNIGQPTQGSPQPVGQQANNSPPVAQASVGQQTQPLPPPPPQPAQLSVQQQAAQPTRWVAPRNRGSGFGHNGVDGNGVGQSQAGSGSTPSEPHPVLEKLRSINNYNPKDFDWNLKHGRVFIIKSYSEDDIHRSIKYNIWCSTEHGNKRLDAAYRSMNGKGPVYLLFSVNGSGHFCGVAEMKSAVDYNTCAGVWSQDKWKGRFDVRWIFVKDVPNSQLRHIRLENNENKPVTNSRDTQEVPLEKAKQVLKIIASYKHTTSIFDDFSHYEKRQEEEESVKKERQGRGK
Chain of FTO (Q9C0B1 whole entry): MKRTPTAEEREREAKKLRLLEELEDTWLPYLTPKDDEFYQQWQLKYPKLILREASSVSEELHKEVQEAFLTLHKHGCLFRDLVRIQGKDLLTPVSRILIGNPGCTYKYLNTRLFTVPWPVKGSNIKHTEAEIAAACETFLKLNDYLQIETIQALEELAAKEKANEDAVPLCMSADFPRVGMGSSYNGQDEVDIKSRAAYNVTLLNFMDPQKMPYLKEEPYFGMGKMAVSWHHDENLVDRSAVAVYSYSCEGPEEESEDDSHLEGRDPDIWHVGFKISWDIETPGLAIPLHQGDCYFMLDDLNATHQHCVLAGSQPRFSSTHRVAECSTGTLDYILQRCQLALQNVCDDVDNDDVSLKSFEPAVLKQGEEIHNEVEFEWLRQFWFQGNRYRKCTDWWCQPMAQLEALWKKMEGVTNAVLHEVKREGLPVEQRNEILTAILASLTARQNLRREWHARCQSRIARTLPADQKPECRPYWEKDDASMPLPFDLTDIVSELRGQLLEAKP

## O=S(=O)(Nc1ccc(F)c(Cl)c1)c1ccc(OC(F)(F)F)cc1 [TR-ALKBH5-38]
FTO; [2]
  IC50: 27.6 µM
[1]; Table 800 compounds
  elogD: 2.58
ALKBH5; [3]
  IC50: 1.9 µM

## O=S(=O)(Nc1cccc(O)c1)c1ccc(OC(F)(F)F)cc1 [TR-ALKBH5-39]
FTO; [2]
  IC50: > 40 µM
[1]; Table 800 compounds
  elogD: 1.60
ALKBH5; [3]
  IC50: 3.1 µM

## CN(CCCN1c2ccccc2CCc2ccccc21)S(=O)(=O)c1ccc(OC(F)(F)F)cc1 [TR-ALKBH5-40]
FTO; [2]
  IC50: 59.4 µM
[1]; Table 800 compounds
  elogD: 2.05
ALKBH5; [3]
  IC50: 2.3 µM

## O=C(C1CC1)N1CCN(S(=O)(=O)c2ccc(OC(F)(F)F)cc2)CC1 [TR-ALKBH5-41]
[1]
  chromatographic logD: 0.79

## C[C@@H](NS(=O)(=O)c1ccc(OC(F)(F)F)cc1)c1cccnc1 [TR-ALKBH5-42]
FTO; [2]
  IC50: 285 µM
[1]; Table 800 compounds
  elogD: 0.83
ALKBH5; [3]
  IC50: 0.25 µM

## COc1cc(NC(=O)C2CC(Oc3ccccc3)CN2C(=O)c2ccccc2OC)cc(OC)c1 (stereo not shown) [TR-FTO 2-01]
FTO; read-out: Enzymatic IC50 FTO
  IC50: 0.61 ± 0.17 µM

## COc1ccccc1C(=O)N1CC(Oc2ccccc2)CC1C(=O)Nc1ccc(C)c(C)c1 (stereo not shown) [TR-FTO 2-02]
FTO; read-out: Enzymatic IC50 FTO
  IC50: 0.19 ± 0.03 µM

## COc1ccc(CNC(=O)C2CC(Oc3ccccc3)CN2C(=O)c2ccccc2OC)cc1 (stereo not shown) [TR-FTO 2-03]
FTO; read-out: Enzymatic IC50 FTO
  IC50: 1.24 ± 0.65 µM

## COc1ccc(CNC(=O)C2CC(Oc3ccccc3)CN2C(=O)c2ccccc2OC)c(OC)c1 (stereo not shown) [TR-FTO 2-04]
FTO; read-out: Enzymatic IC50 FTO
  IC50: 6.67 ± 2.31 µM

## COc1ccccc1C(=O)N1CC(Oc2ccccc2)CC1C(=O)Nc1ccc(C(C)=O)cc1 (stereo not shown) [TR-FTO 2-05]
FTO; read-out: Enzymatic IC50 FTO
  IC50: 8.31 ± 2.07 µM

## COc1ccccc1C(=O)N1CC(Oc2ccccc2)CC1C(=O)NCc1ccccn1 (stereo not shown) [TR-FTO 2-06]
FTO; read-out: Enzymatic IC50 FTO
  IC50: 12.5 ± 2.7 µM

## COc1ccccc1C(=O)N1CC(Oc2ccccc2)CC1C(=O)NCc1cccnc1 (stereo not shown) [TR-FTO 2-07]
FTO; read-out: Enzymatic IC50 FTO
  IC50: 0.17 ± 0.03 µM

## COc1ccccc1C(=O)N1CC(Oc2ccccc2)CC1C(=O)Nc1ccccc1SC (stereo not shown) [TR-FTO 2-08]
FTO; read-out: Enzymatic IC50 FTO
  IC50: 10.3 ± 2.29 µM

## COc1ccccc1C(=O)N1CC(Oc2ccccc2)CC1C(=O)Nc1cccc(F)c1O (stereo not shown) [TR-FTO 2-09]
FTO; read-out: Enzymatic IC50 FTO
  IC50: > 40 µM

## Cc1ccc2[nH]cc(CNCC3(N4CCCC4)COC3)c2c1 [TR-FTO-09]
ALKBH5; [4]
  IC50: > 40 µM

## Fc1ccc2[nH]cc(CNCC3(N4CCCC4)COC3)c2c1 [TR-FTO-11]
ALKBH5; [4]
  IC50: 6.6 µM

## Fc1ccc2c(CNCC3(N4CCCC4)COC3)c[nH]c2c1 [TR-FTO-12]
ALKBH5; [4]
  IC50: 2.3 µM

## c1ccc2c(CNCC3(N4CCCC4)COC3)c[nH]c2c1 [TR-FTO-13]
FTO; [5]
  IC50: 1 µM
ALKBH5; [4]
  IC50: > 40 µM

## COc1cccc2c(CNCC3(N4CCCC4)COC3)c[nH]c12 [TR-FTO-14]
[1]
  elogD: 0.40
ALKBH5; [4]
  IC50: > 40 µM

## Fc1cccc2c(CNCC3(N4CCCC4)COC3)c[nH]c12 [TR-FTO-16]
FTO; [5]
  IC50: 2.2 µM
ALKBH5; [4]
  IC50: 0.87 µM

## Fc1cccc2[nH]cc(CNCC3(N4CCCC4)COC3)c12 [TR-FTO-17]
FTO; [5]
  IC50: 1.3 µM
ALKBH5; [4]
  IC50: 2.5 µM

## c1cc2c(cc1CNCC1(N3CCCC3)COC1)OCCO2 [TR-FTO-27]
[1]
  elogD: 0.55
ALKBH5; [4]
  IC50: 5.9 µM

## Cc1ccc(CNCC2(N3CCCC3)COC2)cc1C [TR-FTO-30]
[1]
  elogD: 0.87
ALKBH5; [4]
  IC50: 9.9 µM

## c1ccc(-c2ccc(CNCC3(N4CCCC4)COC3)o2)cc1 [TR-FTO-35]
[1]
  elogD: 1.14
ALKBH5; [4]
  IC50: 55 µM

## c1cc2cc(CNCC3(N4CCCC4)COC3)ccc2[nH]1 [TR-FTO-37]
[1]
  elogD: 0.75
ALKBH5; [4]
  IC50: 3.3 µM

## c1ccc(-c2ccc(CNCC3(N4CCCC4)COC3)s2)cc1 [TR-FTO-38]
[1]
  elogD: 1.57
ALKBH5; [4]
  IC50: 3.4 µM

## FC(F)(F)Sc1ccc(CNCC2(N3CCCC3)COC2)cc1 [TR-FTO-40]
[1]
  elogD: 1.29
ALKBH5; [4]
  IC50: 3 µM

## Cc1ccc2c(CNCC3(N4CCCC4)COC3)c[nH]c2c1 [TR-FTO-42]
FTO; [5]
  IC50: 3 µM
ALKBH5; [4]
  IC50: 13.4 µM

## Fc1ccc2c(CNCC3(N4CCC(F)C4)COC3)c[nH]c2c1 (stereo not shown) [TR-FTO-44]
[1]
  chromatographic logD: 0.95

## Fc1ccc2[nH]cc(CNCC3(N4CCC(F)C4)COC3)c2c1 (stereo not shown) [TR-FTO-45]
[1]
  elogD: 1.03
ALKBH5; [4]
  IC50: 30.5 µM

## FC1CCN(C2(CNCc3c[nH]c4ccccc34)COC2)C1 (stereo not shown) [TR-FTO-47]
FTO; [5]
  IC50: 2.1 µM
ALKBH5; [4]
  IC50: > 40 µM

## CN(C)Cc1ccc(NCc2ccc(C(F)(F)F)cc2)nc1 [TR-YTH-20]
YTHDF2; Ki values for YTH library against YTHDF2, read-out: Ki
  Ki: 266 ± 92 pM
YTHDF2; read-out: Ki (pM) YTHDF2
  Ki: 266 ± 92 pM
YTHDF2; read-out: Ki YTHDF2
  Ki: 266 ± 92 pM
